Key:
[1] = Intrinsic clearance assay (human liver microsomes); assay type: in vitro ADME; settings: both sexes; 1 μM compound, human liver microsomes 0.5 mg/mL protein, 37° C., 1 mM NADPH; read-out: Human Intrinsic CL (converted)
Procedure: Intrinsic Clearance Assay
The disappearance of the test compound was monitored by LC/MS at […] The slope of decline in compound concentration was used to calculate the human intrinsic clearance by employing standard methods reported in the literature.

[2] = target: T1, human Jak2 (a.a. 828-1132) catalytic domain (Homo sapiens, UniProt O60674); assay: In vitro JAK kinase assay (HTRF), JAK2; assay type: biochemical; settings: 30 μM ATP; ranges = lowest and highest values of the stereoisomers tested; read-out: JAK 2 IC50
T1 construct: Jak2 (a.a. 828-1132); His tag (N); made in house; host or cells: insect cells (baculovirus)
T1 sequence (O60674 828-1132): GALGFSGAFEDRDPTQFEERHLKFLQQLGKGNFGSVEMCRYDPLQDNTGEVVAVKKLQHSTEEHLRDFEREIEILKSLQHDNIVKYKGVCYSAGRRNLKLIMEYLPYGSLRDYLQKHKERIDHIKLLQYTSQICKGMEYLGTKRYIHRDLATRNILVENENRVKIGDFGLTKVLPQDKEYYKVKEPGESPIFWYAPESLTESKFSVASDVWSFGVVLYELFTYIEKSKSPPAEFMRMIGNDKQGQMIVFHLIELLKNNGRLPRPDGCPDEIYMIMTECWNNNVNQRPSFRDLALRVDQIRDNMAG

[3] = target: human JAK1 (a.a. 837-1142) catalytic domain (Homo sapiens, UniProt P23458); assay: In vitro JAK kinase assay (HTRF), JAK1
Sequence of human JAK1 (a.a. 837-1142) catalytic domain (P23458 849-1154): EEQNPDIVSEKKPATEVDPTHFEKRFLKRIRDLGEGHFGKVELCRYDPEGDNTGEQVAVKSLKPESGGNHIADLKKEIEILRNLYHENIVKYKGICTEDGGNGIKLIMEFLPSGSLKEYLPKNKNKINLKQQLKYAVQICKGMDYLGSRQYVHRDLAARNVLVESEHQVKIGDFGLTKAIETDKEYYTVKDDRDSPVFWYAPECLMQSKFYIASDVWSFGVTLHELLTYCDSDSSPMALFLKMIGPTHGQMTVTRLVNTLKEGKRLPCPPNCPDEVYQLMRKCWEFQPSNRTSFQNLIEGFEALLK

[4] = target: human Jak3 (a.a. 781-1124) catalytic domain (Homo sapiens, UniProt P52333); assay: In vitro JAK kinase assay (HTRF), JAK3
Sequence of human Jak3 (a.a. 781-1124) catalytic domain (P52333 781-1124): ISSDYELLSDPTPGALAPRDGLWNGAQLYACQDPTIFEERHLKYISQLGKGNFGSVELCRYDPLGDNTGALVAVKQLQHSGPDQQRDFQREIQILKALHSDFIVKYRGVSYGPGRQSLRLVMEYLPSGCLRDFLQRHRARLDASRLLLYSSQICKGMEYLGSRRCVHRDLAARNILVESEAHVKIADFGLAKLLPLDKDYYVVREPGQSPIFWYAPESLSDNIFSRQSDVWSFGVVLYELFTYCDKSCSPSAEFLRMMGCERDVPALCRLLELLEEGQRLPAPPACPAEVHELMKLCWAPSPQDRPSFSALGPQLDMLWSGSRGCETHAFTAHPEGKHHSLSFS

Row | CLint scaled at 1 μM [1] | IC50 [2] | IC50 [3] | IC50 [4] | SMILES
1 | 11.3 mL/min/kg | – | – | – | N#CC[C@H](C1CCCC1)n1cc(-c2ncnc3[nH]ccc23)cn1 [Compound 1, (R)-3-(4-(7H-pyrrolo[2,3-d]pyrimidin-4-yl)-1H-pyrazol-1-yl)-3-cyclopentylpropanenitrile, reference compound]
2 | < 8.33 mL/min/kg | 0.7 to 2.5 nM | 2.5 to 12 nM | 8.3 to 45 nM | N#CCC(C1CCC(O)C1)n1cc(-c2ncnc3[nH]ccc23)cn1 (stereo not shown) [Metabolite 1, 3-(4-(7H-pyrrolo[2,3-d]pyrimidin-4-yl)-1H-pyrazol-1-yl)-3-(3-hydroxycyclopentyl)propanenitrile]
3 | < 8.33 mL/min/kg | 2 to 2.8 nM | 3 to 15 nM | 17 to 30 nM | N#CCC(C1CCCC1O)n1cc(-c2ncnc3[nH]ccc23)cn1 (stereo not shown) [Metabolite 2, 3-(4-(7H-pyrrolo[2,3-d]pyrimidin-4-yl)-1H-pyrazol-1-yl)-3-(2-hydroxycyclopentyl)propanenitrile]
4 | < 9.5 mL/min/kg | 2.1 to 5.9 nM | 2.7 to 12 nM | 11 to 41 nM | N#CCC(C1CCC(=O)C1)n1cc(-c2ncnc3[nH]ccc23)cn1 (stereo not shown) [Metabolite 3, 3-(4-(7H-pyrrolo[2,3-d]pyrimidin-4-yl)-1H-pyrazol-1-yl)-3-(3-oxycyclopentyl)propanenitrile]
